Here are results for twelve compounds from patent US20230102247A1, “METHODS AND COMPOSITIONS RELATING TO IONIC LIQUID ADJUVANTS” (PRESIDENT AND FELLOWS OF HARVARD COLLEGE, priority 2020, published 2023).

For data set [1] the following is noted: cited from earlier work.
The target in data set [2] is T1, OVA (Gallus gallus, UniProt P01012).
Description: OVA containing solutions (0.5 mg mL-1) and complete medium (DMEM+10% FBS) were mixed to a total volume of 500 μL and incubated at 37° C. on a tube revolver. At regular time points, the suspensions were centrifuged at 12 000×g for 15 min and the supernatant was collected for analysis. The pellet was further resuspended in 400 μL fresh release media and incubated until the next time point.
Data set [3] deals with infiltrating immune cells at the injection site. Conditions: subcutaneous, 24 h. Here is the method: (§1) Female Balb/C mice (6-8-week-old) were purchased from Charles River Laboratories. All experiments were performed according to the approved protocols by the Institutional Animal Care and Use Committee (IACUC) of the Faculty of Arts and Sciences (FAS), Harvard University, Cambridge.
Balb/c mice were subcutaneously injected in the back with 50 μL of saline, CoLa or alum (n=4 for all groups). […] Undigested tissue was removed by 70 μm mesh filtration. The suspension was centrifuged at 400×g for 10 min. The supernatant was removed via pipetting and 2 mL ACK lysing buffer (Thermo Fisher) was added to the pellet. After 5 min the suspensions were centrifuged again and resuspended with 2 mL FCS blocking buffer.

The target of data set [4] is T1, OVA. The conditions noted are these: 10% w/v CoLa in saline, compared to alum.
Description: For the CoLa adjuvant formulation, 10% w/v CoLa was added unless specified. Adsorbed OVA was quantified using a plate reader (Spectramax i3™)
Data set [5] has as its target T1, OVA. The source holds these as a separate data set.
Description: An SDS-PAGE assay was carried out to assess OVA aggregation from the OVA-CoLa or alum samples. 1 mg mL-1 OVA in 10% v/v CoLa or 2% alum were incubated for 1 h at room temperature (25° C.). OVA in saline was used as a negative control. […] Before electrophoresis, all samples were centrifuged at 5000×g for 5 min to discard any undissolved residue and the clear supernatants were adjusted to equivalent protein concentration. […] The protein bands were stained with Bio-Safe Coomassie stain (BioRad) for observation according to the manufacturer's protocol. Circular dichroism spectrophotometry (Jasco J-1500, Easton) was performed in the far-UV region (190-250 nm) to collect spectra. The three OVA (0.5 mg mL-1) containing formulations were centrifuged for 10 min at 10,000×g. The supernatant was removed via pipetting, while the soft OVA pellet at the bottom of the tube was not disturbed. The pellet was washed with 1 mL PBS and centrifuged again to remove the supernatant. The washing/centrifugation steps were repeated until no OVA pellet was formed during centrifugation. Rectangular quartz cells with a 1 mm path length (1-Q-1) were loaded with 400 μL of a sample. As a control spectrum, OVA in PBS was used. Each spectrum was the average of three scans.
The subject of a further data set is immune response to OVA. Here is the method: as §1
Balb/c mice were subcutaneously injected in the back with 50 μL of OVA-saline, OVA-CoLa or alum (n=8 for all groups). A total of three injections were given on day 0, day 7 and day 14. On day 19, the mice were euthanized, blood and spleen were collected for further analysis.
Blood was centrifuged at 5000 rpm for 10 minutes at 4° C. to separate the serum from the cells. Anti-OVA IgG titer was measured as previously described^13.

Where a name gives a salt, the structure may show the parent alone. Read-outs that look alike come from different tables or passages of the source.

T1 sequence (P01012 whole entry): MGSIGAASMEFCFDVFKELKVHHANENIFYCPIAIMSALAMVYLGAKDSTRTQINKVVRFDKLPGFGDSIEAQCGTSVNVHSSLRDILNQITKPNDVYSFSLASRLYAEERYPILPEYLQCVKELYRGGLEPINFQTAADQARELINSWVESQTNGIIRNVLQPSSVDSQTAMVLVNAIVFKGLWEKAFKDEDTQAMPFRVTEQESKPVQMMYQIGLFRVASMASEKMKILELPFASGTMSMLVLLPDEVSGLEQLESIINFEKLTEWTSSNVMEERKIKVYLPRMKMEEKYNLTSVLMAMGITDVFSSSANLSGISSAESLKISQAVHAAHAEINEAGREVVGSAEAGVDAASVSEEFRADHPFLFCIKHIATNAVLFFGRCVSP

For `CCCCC(CC)COS(=O)(=O)O` (stereo not drawn) [2-Ethylhexyl sulfate], the LogP in data set [1] is on record as 3.10.
For the compound `CC(C)=CC(=O)O` [3,3-dimethylacrylic acid], the LogP in data set [1] is reported as 1.2.
Turning to `O=S(=O)(O)c1ccc(O)cc1` [4-hydroxybenzenesulfonic acid], the LogP in data set [1] (exemplary anions) is recorded as 0.2.
For `O=C(O)c1cccc(-c2ccccc2)c1` [Biphenyl-3-carboxylic acid], in data set [1] (exemplary anions), the LogP was 3.5.
In the case of `CC(O)C(=O)O.CC(O)C(=O)[O-].C[N+](C)(C)CCO` [CoLa, Choline lactate (1:2)], the “time over which adsorbed OVA was released” value at OVA [2] (10% w/v CoLa in saline, DMEM+10% FBS, 37° C.) turned out to be 24 h. Further, the “release of adsorbed OVA” value at OVA [2] (compared to alum) was “faster release”. For the same compound, in data set [3], the “infiltrating CD8 cells” value was “no such effect”. In addition, in data set [3] (compared to the controls), the “CD86 (activation marker) on infiltrating dendritic cells” value is “significant increase” and the “increase in infiltration of CD4 cells” value is about 25%. For the same compound, the “higher infiltration of dendritic cells” value in data set [3] (compared to untreated and alum-treated mice) was 20%. The “OVA adsorption on adjuvant” value at OVA [4] was “lower adsorption”. In addition, on OVA [5], the “secondary structure of OVA (CD analysis)” value is reported as “preserved”. In addition, the “molecular integrity of adsorbed OVA (SDS-PAGE)” value on OVA [5] (similar to alum and saline) is reported as “maintained the molecular integrity”. Besides, the “Th2 response, as assessed by anti-OVA IgG” value in the data set on immune response to OVA (compared to alum) is listed as “non-significant Th2 response”. Besides, the Th1 response result in the data set on immune response to OVA (injections day 0, 7, 14, analysis day 19) is “strong Th1 response”. Besides, the “activated dendritic cells (CD80)” value with immune response to OVA (spleen, CoLa versus alum) is given as “significantly higher”. Besides, in the data set on immune response to OVA (spleen, compared to alum), the “increase in IFN-γ+CD4 cells” value is about 3 fold. Moreover, the “increase in the number of CD4 cells” value in the data set on immune response to OVA (spleen, compared to both the other groups) was determined as 50%. In the data set on immune response to OVA (spleen, compared to the controls), the “increase in the CD8 cells” value turned out to be 5 fold. For the same compound, the “increase in natural killer (NK) cells” value with immune response to OVA (spleen, compared to the saline group) is given as about 1.8 fold.
Regarding `O=C(O)[C@H](O)[C@@H](O)[C@H](O)[C@H](O)CO` [Gluconic acid], the LogP in data set [1] (exemplary anions) is recorded as −3.4.
`O=C(O)CO` [Glycolic acid]: the LogP in data set [1] (exemplary anions) is −1.11.
As to `O=C(O)CCc1ccccc1` [Hydrocinnamic acid], in data set [1] (exemplary anions), the LogP is listed as 1.84.
On to `CC(C)C(=O)O` [Isoburtyric acid], for which, in data set [1] (exemplary anions), the LogP is listed as 0.94.
`O=C(O)/C=C\C(=O)O` [Maleic acid]: in data set [1] (exemplary anions), the LogP was −0.48.
Regarding `O=P(O)(O)Oc1ccccc1` [Phenylphosphoric acid], in data set [1] (exemplary anions), the log partition coefficient (LogP) is 1.05.
As to `CCC(=O)O` [Propanoic acid], the LogP in data set [1] (exemplary anions) is listed as 0.33.

The LogP is a log measure of how a compound divides between an organic and an aqueous phase.
